Test results published in BindingDB's records for doi:10.1021/jm00049a010 (University of Arizona, 1994).

Experiment: Binding affinity at delta opioid receptor in guinea pig brain by [3H]c[D-Pen2, p-Cl-Phe4, D-Pen5]-enkephalin displacement.
For CC[C@H](C)[C@@H]1NC(=O)[C@H](CCCN=C(N)N)NC(=O)[C@H](CCCN=C(N)N)NC(=O)[C@H](NC(=O)[C@H](Cc2ccccc2)NC(=O)CNC(=O)CNC(=O)[C@@H](N)Cc2ccc(O)cc2)CSSC[C@@H](C(N)=O)NC(=O)[C@@H]2CCCN2C(=O)[C@H](CCCN=C(N)N)NC1=O, the IC50 was 1000 nM. CC[C@H](C)[C@@H]1NC(=O)[C@H](CCCNC(=N)N)NC(=O)[C@H](CCCNC(=N)N)NC(=O)[C@@H](NC(=O)[C@H](Cc2ccccc2)NC(=O)CNC(=O)CNC(=O)[C@@H](N)Cc2ccc(O)cc2)CSSC[C@@H](C(N)=O)NC(=O)[C@@H]2CCCN2C(=O)[C@H](CCCNC(=N)N)NC1=O showed an IC50 of 1740 nM. CC[C@H](C)[C@@H]1NC(=O)[C@H](CCCN=C(N)N)NC(=O)[C@H](CCCN=C(N)N)NC(=O)[C@@H](NC(=O)[C@H](Cc2ccccc2)NC(=O)CNC(=O)CNC(=O)[C@@H](N)Cc2ccc(O)cc2)C(C)(C)SSC(C)(C)[C@@H](C(N)=O)NC(=O)[C@@H]2CCCN2C(=O)[C@H](CCCN=C(N)N)NC1=O gave an IC50 of 245 nM. CC[C@H](C)[C@@H]1NC(=O)[C@H](CCCN=C(N)N)NC(=O)[C@H](CCCN=C(N)N)NC(=O)[C@@H](NC(=O)[C@H](Cc2ccccc2)NC(=O)CNC(=O)CNC(=O)[C@@H](N)Cc2ccc(O)cc2)CSSC[C@H](C(N)=O)NC(=O)[C@@H]2CCCN2C(=O)[C@H](CCCN=C(N)N)NC1=O gave an IC50 of 14 nM. Compound CC[C@H](C)[C@@H]1NC(=O)[C@H](CCCN=C(N)N)NC(=O)[C@H](CCCN=C(N)N)NC(=O)[C@@H](NC(=O)[C@H](Cc2ccccc2)NC(=O)CNC(=O)CNC(=O)[C@@H](N)Cc2ccc(O)cc2)CSSC(C)(C)[C@@H](C(N)=O)NC(=O)[C@@H]2CCCN2C(=O)[C@H](CCCN=C(N)N)NC1=O [Tyr-Gly-Gly-Phe-D-Cys-Arg-Arg-Ile-Arg-Pro-Cys-NH2] has an IC50 of 16 nM. Work on CC[C@H](C)[C@@H]1NC(=O)[C@H](CCCN=C(N)N)NC(=O)[C@H](CCCN=C(N)N)NC(=O)[C@H](NC(=O)[C@H](Cc2ccccc2)NC(=O)CNC(=O)CNC(=O)[C@@H](N)Cc2ccc(O)cc2)CSSC[C@H](C(N)=O)NC(=O)[C@@H]2CCCN2C(=O)[C@H](CCCN=C(N)N)NC1=O [Tyr-Gly-Gly-Phe-D-Cys-Arg-Arg-Ile-Arg-Pro-D-Cys-NH2] yielded an IC50 of 1030 nM. Compound CC[C@H](C)[C@@H]1NC(=O)[C@H](CCCN=C(N)N)NC(=O)[C@H](CCCN=C(N)N)NC(=O)[C@H](NC(=O)[C@H](Cc2ccccc2)NC(=O)CNC(=O)CNC(=O)[C@@H](N)Cc2ccc(O)cc2)CSSC(C)(C)[C@H](C(N)=O)NC(=O)[C@@H]2CCCN2C(=O)[C@H](CCCN=C(N)N)NC1=O [Tyr-Gly-Gly-Phe-D-Cys-Arg-Arg-Ile-Arg-Pro-D-Pen-NH2] has an IC50 of 1370 nM. Compound CC[C@H](C)[C@@H]1NC(=O)[C@H](CCCN=C(N)N)NC(=O)[C@H](CCCN=C(N)N)NC(=O)[C@@H](NC(=O)[C@H](Cc2ccccc2)NC(=O)CNC(=O)CNC(=O)[C@@H](N)Cc2ccc(O)cc2)CSSC(C)(C)[C@H](C(N)=O)NC(=O)[C@@H]2CCCN2C(=O)[C@H](CCCN=C(N)N)NC1=O [Tyr-Gly-Gly-Phe-D-Cys-Arg-Arg-Ile-Arg-Pro-Pen-NH2] has an IC50 of 319 nM. Compound CC[C@H](C)[C@@H]1NC(=O)[C@H](CCCN=C(N)N)NC(=O)[C@H](CCCN=C(N)N)NC(=O)[C@@H](NC(=O)[C@H](Cc2ccccc2)NC(=O)CNC(=O)CNC(=O)[C@@H](N)Cc2ccc(O)cc2)C(C)(C)SSC[C@@H](C(N)=O)NC(=O)[C@@H]2CCCN2C(=O)[C@H](CCCN=C(N)N)NC1=O [Tyr-Gly-Gly-Phe-D-Pen-Arg-Arg-Ile-Arg-Pro-Cys-NH2] has an IC50 of 242 nM. Work on CC[C@H](C)[C@@H]1NC(=O)[C@H](CCCN=C(N)N)NC(=O)[C@H](CCCN=C(N)N)NC(=O)[C@H](NC(=O)[C@H](Cc2ccccc2)NC(=O)CNC(=O)CNC(=O)[C@@H](N)Cc2ccc(O)cc2)C(C)(C)SSC[C@H](C(N)=O)NC(=O)[C@@H]2CCCN2C(=O)[C@H](CCCN=C(N)N)NC1=O [Tyr-Gly-Gly-Phe-D-Pen-Arg-Arg-Ile-Arg-Pro-D-Cys-NH2] yielded an IC50 of 390 nM. For CC[C@H](C)[C@@H]1NC(=O)[C@H](CCCN=C(N)N)NC(=O)[C@H](CCCN=C(N)N)NC(=O)[C@H](NC(=O)[C@H](Cc2ccccc2)NC(=O)CNC(=O)CNC(=O)[C@@H](N)Cc2ccc(O)cc2)C(C)(C)SSC(C)(C)[C@H](C(N)=O)NC(=O)[C@@H]2CCCN2C(=O)[C@H](CCCN=C(N)N)NC1=O [Tyr-Gly-Gly-Phe-D-Pen-Arg-Arg-Ile-Arg-Pro-D-Pen-NH2], the IC50 was 1910 nM. For CC[C@H](C)[C@@H]1NC(=O)[C@H](CCCN=C(N)N)NC(=O)[C@H](CCCN=C(N)N)NC(=O)[C@H](NC(=O)[C@H](Cc2ccccc2)NC(=O)CNC(=O)CNC(=O)[C@@H](N)Cc2ccc(O)cc2)C(C)(C)SSC[C@@H](C(N)=O)NC(=O)[C@@H]2CCCN2C(=O)[C@H](CCCN=C(N)N)NC1=O [Tyr-Gly-Gly-Phe-D-Pen-Arg-Arg-Ile-Arg-Pro-Pen-NH2], the IC50 was 2000 nM. Compound CC[C@H](C)[C@@H]1NC(=O)[C@H](CCCN=C(N)N)NC(=O)[C@H](CCCN=C(N)N)NC(=O)[C@H](NC(=O)[C@H](Cc2ccccc2)NC(=O)CNC(=O)CNC(=O)[C@@H](N)Cc2ccc(O)cc2)C(C)(C)SSC(C)(C)[C@@H](C(N)=O)NC(=O)[C@@H]2CCCN2C(=O)[C@H](CCCN=C(N)N)NC1=O [Tyr-Gly-Gly-Phe-Pen-Arg-Arg-Ile-Arg-Pro-Cys-NH2] has an IC50 of 1360 nM. For CC[C@H](C)[C@@H]1NC(=O)[C@H](CCCN=C(N)N)NC(=O)[C@H](CCCN=C(N)N)NC(=O)[C@@H](NC(=O)[C@H](Cc2ccccc2)NC(=O)CNC(=O)CNC(=O)[C@@H](N)Cc2ccc(O)cc2)C(C)(C)SSC(C)(C)[C@H](C(N)=O)NC(=O)[C@@H]2CCCN2C(=O)[C@H](CCCN=C(N)N)NC1=O [Tyr-Gly-Gly-Phe-Pen-Arg-Arg-Ile-Arg-Pro-D-Cys-NH2], the IC50 was 717 nM. Work on CC[C@H](C)[C@@H]1NC(=O)[C@H](CCCN=C(N)N)NC(=O)[C@H](CCCN=C(N)N)NC(=O)[C@@H](NC(=O)[C@H](Cc2ccccc2)NC(=O)CNC(=O)CNC(=O)[C@@H](N)Cc2ccc(O)cc2)C(C)(C)SSC[C@H](C(N)=O)NC(=O)[C@@H]2CCCN2C(=O)[C@H](CCCN=C(N)N)NC1=O [Tyr-Gly-Gly-Phe-Pen-Arg-Arg-Ile-Arg-Pro-D-Pen-NH2] yielded an IC50 of 232 nM.
